These are literature values, as cited in US12194143B2, “Mycophenolate oral suspension” (LIQMEDS WORLDWIDE LIMITED, priority 2018, dated 2025).

Where a name gives a salt, the structure may show the parent alone. Read-outs that look alike come from different tables or passages of the source.

Consider `C[C@@H](NCCCc1cccc(C(F)(F)F)c1)c1cccc2ccccc12` [Cinacalcet hydrochloride, N-[1-(R)-(−)-(1-naphthyl)ethyl]-3-[3-(trifluoromethyl)phenyl]-1-aminopropane], for which the solubility result by setting is: (in 95% ethanol) “soluble”; (in methanol) “soluble”; (in water) “slightly soluble”.
